{"source": "patent US20260022095A1", "about": "“COMPOUNDS USEFUL FOR THE PREPARATION OF VARIOUS AGROCHEMICALS AND MARKERS THEREOF” (ADAMA AGAN LTD., priority 2021, published 2026)", "assay": "Sunlight exposure of buffered aqueous Tetflupyrolimet solutions, Storage Marker formation by HPLC-MS", "assay_type": "physicochemical", "conditions": "natural sunlight approximately 2 months; for concentration of the Storage Marker as compared to the solution buffered at pH=7: quartz tube", "protocol": "Three lots of about 50 mg of Tetflupyrolimet were each suspended in about 2 ml of a 2% solution of acetonitrile in water, and sonicated for about 20 minutes.\nInto each, about 0.1 ml of a different buffer was added, pH=4, pH=7 and pH=10 respectively.\nThe three solutions were each filtered and introduced to quartz tubes and exposed to natural sunlight for approximately 2 months.\n• Column: Agilent Zorbax Eclipse XDB C18, 150×4.6 mm ID, 5.0 μm • Injection volume: 5 μL • Oven temperature: 40° C. • Detector: UV, □=230, 250, 280 nm • Solvent delivery system conditions at flow rate of 1.0 ml/min: […]", "data": [{"smiles": "CN1C[C@H](c2cccc(C(F)(F)F)c2)[C@@H](C(=O)Nc2ccccc2F)C1=O", "note": "[Tetflupyrolimet, (3S,4S)—N-(2-fluorophenyl)-1-methyl-2-oxo-4-(3-(trifluoromethyl)phenyl) pyrrolidine-3-carboxamide]", "values": [{"measurement": "formation of Storage Marker (HPLC-MS)", "setting": "2% acetonitrile in water, buffered at pH=4, pH=7 and pH=10, quartz tubes", "value": "formation of Storage Marker in each solution"}, {"measurement": "concentration of the Storage Marker as compared to the solution buffered at pH=7", "setting": "solution buffered at pH 4", "value": "approximately an order of magnitude higher concentration of the Storage Marker"}, {"measurement": "concentration of the Storage Marker as compared to the solution buffered at pH=7", "setting": "solution buffered at pH 10", "value": "approximately an order of magnitude higher concentration of the Storage Marker"}]}]}
